The text below walks through data of PMC3481155, “AhR activation underlies the CYP1A autoinduction by A-998679 in rats” (Frontiers in Genetics, 2012).

One data set addresses T1, rat Cyp 3A1 (Rattus norvegicus, UniProt P04800).
T1 construct: purchased BD Gentest; host or cells: baculovirus infected insect cells
In words: Recombinant rat Cyp phenotype profiling, 3A1. In kind it is in vitro ADME. The settings on record: 60 min. Here is the method:
Identification of the drug metabolizing enzymes (DMEs) of A-998679 was studied in cDNA expressed recombinant enzymes prepared from baculovirus infected insect cells over-expressing rat Cyp isoforms (BD Gentest, Woburn, MA) as listed in Table 2. Incubations were conducted in duplicate using Supersomes. The incubation mixture contained 100 pmol/ml of enzymes, except for Cyp1a1 (200 pmol/ml), 0.1 or 0.21 μM of [^3H]A-998679 in 100 mM phosphate buffer (pH 7.4). Reactions were initiated with the addition of NADPH at a final concentration of 1 mM and incubated at 37°C for 60 min. At the end of the incubation period, the incubations were terminated by the addition of acetonitrile/ethanol (50/50, v/v) solution. Insect control samples lacking expressed enzyme were used as negative control. The degree of metabolism of A-998679 was assessed by percent of parent remaining using the radio-HPLC method described below.
Radiolabeled components from the above assays were profiled following separation by HPLC with on line radioflow detector. The system consisted of an Agilent 1100 Series quaternary pump and autosampler connected to a Packard 500TR flow scintillation detector. The data were processed using the Radiomatic™ Flo-one® software v3.65. The scintillant (Perkin Elmer FLO-SCINT™ III) flow was maintained at 3 ml/min. […]

In data set [1] the target is T2, aryl hydrocarbon receptor (AhR) (Homo sapiens, UniProt P35869).
T2 construct: endogenous in cells; host or cells: HepG2
T2 sequence (P35869 11-848): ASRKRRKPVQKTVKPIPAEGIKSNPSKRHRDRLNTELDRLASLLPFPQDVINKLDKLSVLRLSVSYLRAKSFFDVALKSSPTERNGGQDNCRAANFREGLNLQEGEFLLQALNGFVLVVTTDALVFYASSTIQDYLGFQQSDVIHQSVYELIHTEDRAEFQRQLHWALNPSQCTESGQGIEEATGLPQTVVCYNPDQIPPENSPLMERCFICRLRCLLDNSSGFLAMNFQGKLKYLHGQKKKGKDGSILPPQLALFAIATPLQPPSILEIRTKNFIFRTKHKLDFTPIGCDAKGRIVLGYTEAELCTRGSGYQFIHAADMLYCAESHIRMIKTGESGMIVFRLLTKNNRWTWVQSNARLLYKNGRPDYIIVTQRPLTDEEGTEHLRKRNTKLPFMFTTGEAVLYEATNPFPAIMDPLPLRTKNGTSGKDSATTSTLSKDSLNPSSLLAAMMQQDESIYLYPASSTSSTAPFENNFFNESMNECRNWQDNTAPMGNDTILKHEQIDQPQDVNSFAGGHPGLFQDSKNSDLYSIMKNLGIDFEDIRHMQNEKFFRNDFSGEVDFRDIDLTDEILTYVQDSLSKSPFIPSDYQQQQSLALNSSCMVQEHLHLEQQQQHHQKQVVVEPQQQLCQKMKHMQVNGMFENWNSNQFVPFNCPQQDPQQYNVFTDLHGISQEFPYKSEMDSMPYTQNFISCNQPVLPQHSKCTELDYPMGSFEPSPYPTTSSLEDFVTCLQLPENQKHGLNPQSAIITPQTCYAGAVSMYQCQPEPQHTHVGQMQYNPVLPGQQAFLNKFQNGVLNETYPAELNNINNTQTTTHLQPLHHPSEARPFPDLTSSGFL
Put plainly: AhR luciferase reporter assay in HepG2 cells. In kind it is cell-based. On the procedure:
HepG2 cells were transiently transfected overnight with the construct (1200 bp portion of the human CYP1A1 promoter region containing 2 copies of the functional consensus sequence for the DRE in luc2P luciferase vector (SwitchGear Genomics cat# 114555, Menlo Park, CA) using lipofectin (Invitrogen Life Technologies) at 500 ng construct per million cells. Following transfection, the cells were replated in a 96-well format and dosed for 24 h with 0.1% (v/v) DMSO vehicle, 3-MC at 0.05, 0.1, 0.5, 1, 5, 10 μM, and A-998679 at 1.5625, 3.125, 6.25, 12.5, 25, and 50 μM. Luminescence signal was generated using the Dual-Luciferase Reporter Assay System (Promega, Madison, WI) and detected with a Tecan Genios Pro reader (Männedorf, Switzerland).
For orientation: Reporter assays use an easily measured gene product as a stand-in for the process of interest.

The test system of a further data set is Cyp1a1. In words: Immunohistochemistry of Cyp1a1 in rat liver. The settings on record: 5 days of treatment; not detectable in control livers. The data set is classed as in vivo. On the procedure: All animal experiments were conducted in accordance with the Guiding Principles in the Use of Animals in Toxicology (http://www.toxicology.org/ai/air/air6.asp) and were approved by Abbott's Institutional Animal Care and Use Committee (IACUC). Male Sprague-Dawley rats [Crl:CD®(SD)IGS BR], weighing ~250 g at study initiation were obtained from Charles River Laboratories, Inc. (Wilmington, MA). Rats were housed singly in ventilated, stainless steel, wire-bottom hanging cages and fed non-certified Rodent Chow (Harlan Labs, Madison, WI), and water ad libitum and acclimated for at least 5 days after arrival. Rats were randomly assigned to various treatment groups (3 rats/group) and were dosed once daily by oral gavage with vehicle (0.2% hydroxypropylmethylcellulose at a dose volume of 10 ml/kg) or with 30, 100, or 200 mg/kg of A-998679. All rats were fasted overnight after their last dose, weighed and sacrificed under isoflurane anesthesia. […] Serum clinical chemistry parameters were quantified using an Aeroset Clinical Chemistry Analyzer (Abbott Laboratories, Abbott Park, IL) and included alanine amino transferase (ALT), aspartate amino transferase (AST), gamma glutamyltransferase (GGT), and alkaline phosphatase (ALP) activities. […]

Structures are written as SMILES.

T1 sequence (P04800 whole entry): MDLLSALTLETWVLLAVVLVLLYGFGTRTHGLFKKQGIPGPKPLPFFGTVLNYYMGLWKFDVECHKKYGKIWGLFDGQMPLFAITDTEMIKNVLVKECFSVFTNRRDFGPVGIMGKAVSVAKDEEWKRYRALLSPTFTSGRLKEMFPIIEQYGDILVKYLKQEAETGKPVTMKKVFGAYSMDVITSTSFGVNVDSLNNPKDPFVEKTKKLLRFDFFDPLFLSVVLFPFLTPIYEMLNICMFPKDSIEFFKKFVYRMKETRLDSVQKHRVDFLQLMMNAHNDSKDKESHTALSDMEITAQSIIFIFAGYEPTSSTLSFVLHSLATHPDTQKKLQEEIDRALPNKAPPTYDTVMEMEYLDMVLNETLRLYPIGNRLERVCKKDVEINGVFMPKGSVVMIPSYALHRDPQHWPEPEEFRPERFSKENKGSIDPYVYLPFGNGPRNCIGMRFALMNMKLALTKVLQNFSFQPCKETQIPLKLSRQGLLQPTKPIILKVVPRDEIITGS

`N#Cc1cccc(-c2noc(-c3cccnc3)n2)c1` [A-998679, 3-(5-pyridin-3-yl-1,2,4-oxadiazol-3-yl) benzonitrile]: the “% parent remaining” value at rat Cyp 3A1 (recombinant rat Cyp 3A1, 0.10 μM) is reported as 93.9%; on rat Cyp 3A1 (recombinant rat Cyp 3A1, 0.21 μM) it was 90.3%. Besides, in data set [1] (gene reporter assay), the “lowest level activating the DRE” value is on record as ~ 6 μM. Besides, the half-maximal effective concentration (EC50) in data set [1] (luciferase reporter with human DRE construct, 24 h, read-out: EC50, activation of AhR signaling) was 16.2 µM. Also, the “maximal increase over vehicle” value in data set [1] (luciferase reporter, 24 h) was determined as 56 fold. Moreover, the “Cyp1a1 immunostaining in rat liver” value in the data set on Cyp1a1 was “moderate levels in centrilobular regions”.

For orientation: EC50 means the concentration giving half of the maximal effect.
